In US20150181873A1, “HERBICIDE-RESISTANT SUNFLOWER PLANTS, POLYNUCLEOTIDES ENCODING HERBICIDE=RESISTANT ACETO HYDROXY ACID SYNTHASE LARGE SUBUNIT PROTEINS, AND METHODS OF USE” (NIDERA S.A., priority 2013, published 2015):

Assays:
Assay type in all cases: in vivo, Helianthus annuus
[1] = tested on: Sunflower line S4897; experiment: Greenhouse spray injury rating, line S4897; conditions: imazapyr 360 gm ai/ha (column 360/240)
Excerpt: (§1) Sunflower lines S4897, Clearfield® sunflower varieties A, B, C and a conventional non-Clearfield variety were sprayed with three rates of imazamox (Raptor™), 100, 200 and 300 gm ai/ha plus 0.5% Sun It II and two rates of imazapyr (Arsenal™) 160 and 360 gm ai/ha plus 0.5% Sun It II when the plants were at the two to three leaf stage. Ratings were taken at 14 days after application (DAT) for injury. Injury was rated on a scale from 0 to 9 where 0=no injury to 9=dead plant. Twelve plants were sprayed per herbicide/rate treatment. Statistical analysis was conducted with STATGRAPHICS Plus 5.0 by using ANOVA and LSD procedures.
(§2) After plants were sprayed, it was realized that a height difference between S4897 and other sunflower varieties would have impacted the actual herbicide dose that was delivered. The spray boom height had been calibrated against S4897 and since the other varieties were taller and closer to the boom they would have received a greater dose of herbicide. Rates were recalibrated for the other varieties to determine the approximate dose they would have received. Assessments were made as presented in Table 2 since it was not possible to make a direct rate comparison due to the effect of the height. For example injury scores were compare for S4897 treated imazamox rate 100 gm ai/ha to the other varieties treated at 75 gm ai/ha. The treatment dose of 300 gm ai/ha for line S4897 was equivalent to the treatment of 200 gm ai/ha for the other varieties, which […].

[2] = tested on: Clearfield sunflower variety A; experiment: Greenhouse spray injury rating, Clearfield variety A; conditions: imazapyr 240 gm ai/ha, scale 0-9
Excerpt: as §1, §2

[3] = tested on: sunflower hybrid TH1 (A205V); experiment: Greenhouse imazapir dose response, TH1; conditions: 14 DAT
Experimental: (§3) A greenhouse study was conducted to quantify and contrast the imazapir sensivity of the mutants A122T and A205V in different genetic backgrounds at the whole plant level in sunflower. Seeds of the different sunflower lines that were used in this study were obtained under field conditions.
(§4) Seeds were sown in Petri dishes and, after germination, plantlets were transplanted to pots of 10 cm of diameter in a potting media consisting of equal parts of vermiculite, soil and sand. Plants were grown in a greenhouse under natural light conditions supplemented with 400 W sodium halide lamps to provide a 16 hrs daylength. Day/night temperatures were 25 and 20° C., respectively. At the V2 stage 10 plants of each genotype were randomly assigned to each treatment consisting of […] imazapir doses (0, 40, 80, 160, 240, 320, 400 and 480 g ai/ha), and a zero-time biomass determination. Experiment was arranged as a randomized block design with a full factorial (sunflower line×treatment) arrangement of treatments and 10 replications.
(§5) On the day of herbicide application ten plants of each genotype were cut at the cotyledonal node and dried at 60° C. for 48 hrs zero-time for dried weight determination. […] Height was determined as the distance between the cotyledonal node and the apex of each plant. For root biomass determination, each plant was taken from the pot and the potting media was washed out from the roots. Above ground biomass data from each line were converted to biomass accumulation after application by subtracting the appropriate average zero-time biomass from each sample. Dry biomass data were converted to percentages of the untreated control plants within each line to allow direct comparisons between groups.

[4] = tested on: sunflower restorer line GIM 5-6 (A122T); experiment: Greenhouse imazapir dose response, GIM 5-6; conditions: GIM5-6 (A122T), 14 DAT
Experimental: as §3, §4, §5

[5] = tested on: sunflower line GM1606 (A122T); experiment: Greenhouse imazapir dose response, GM1606; conditions: 14 DAT
Experimental: as §3, §4, §5

Structure (SMILES): CC(C)C1(C)N=C(c2ncccc2C(=O)O)NC1=O (stereo not shown) [Imazapyr, imazapyr]
- Injury at 14 DAT ([1]; scale 0-9): 0.8 a
- Injury at 14 DAT ([1]; scale 0-9, listed as imazapyr): very little injury
- Injury at 14 DAT [2]: 5.0 c
- Phytotoxicity Index ([3]; 0.5x (40 g ai/ha)): 0
- biomass accumulation, % of untreated ([3]; 0.5x (40 g ai/ha)): 95.0%
- plant height, % of untreated ([3]; 0.5x (40 g ai/ha)): 99.5%
- root dry weight, % of untreated ([3]; 0.5x (40 g ai/ha)): 79.4%
- Phytotoxicity Index ([3]; 1x (80 g ai/ha)): 0
- biomass accumulation, % of untreated ([3]; 1x (80 g ai/ha)): 89.6%
- plant height, % of untreated ([3]; 1x (80 g ai/ha)): 99.5%
- root dry weight, % of untreated ([3]; 1x (80 g ai/ha)): 70.7%
- Phytotoxicity Index ([3]; 2x (160 g ai/ha)): 1.8
- biomass accumulation, % of untreated ([3]; 2x (160 g ai/ha)): 75.5%
- plant height, % of untreated ([3]; 2x (160 g ai/ha)): 78.6%
- root dry weight, % of untreated ([3]; 2x (160 g ai/ha)): 69.6%
- Phytotoxicity Index ([3]; 3x (240 g ai/ha)): 6.4
- biomass accumulation, % of untreated ([3]; 3x (240 g ai/ha)): 60.4%
- plant height, % of untreated ([3]; 3x (240 g ai/ha)): 48.4%
- root dry weight, % of untreated ([3]; 3x (240 g ai/ha)): 42.3%
- Phytotoxicity Index ([3]; 4x (320 g ai/ha)): 8.0
- biomass accumulation, % of untreated ([3]; 4x (320 g ai/ha)): 46.5%
- plant height, % of untreated ([3]; 4x (320 g ai/ha)): 28.9%
- root dry weight, % of untreated ([3]; 4x (320 g ai/ha)): 38.6%
- Phytotoxicity Index ([3]; 5x (400 g ai/ha)): 8.9
- biomass accumulation, % of untreated ([3]; 5x (400 g ai/ha)): 38.9%
- plant height, % of untreated ([3]; 5x (400 g ai/ha)): 25.3%
- root dry weight, % of untreated ([3]; 5x (400 g ai/ha)): 34.7%
- Phytotoxicity Index ([3]; 6x (480 g ai/ha)): 9.0
- biomass accumulation, % of untreated ([3]; 6x (480 g ai/ha)): 33.9%
- plant height, % of untreated ([3]; 6x (480 g ai/ha)): 27.1%
- root dry weight, % of untreated ([3]; 6x (480 g ai/ha)): 23.1%
- biomass accumulation, % of untreated ([4]; 0.5x (40 g ai/ha)): 100.0%
- plant height, % of untreated ([4]; 0.5x (40 g ai/ha)): 100.0%
- root dry weight, % of untreated ([4]; 0.5x (40 g ai/ha)): 100%
- biomass accumulation, % of untreated ([4]; 1x (80 g ai/ha)): 96.4%
- plant height, % of untreated ([4]; 1x (80 g ai/ha)): 100.0%
- root dry weight, % of untreated ([4]; 1x (80 g ai/ha)): 88.0%
- biomass accumulation, % of untreated ([4]; 2x (160 g ai/ha)): 97.7%
- plant height, % of untreated ([4]; 2x (160 g ai/ha)): 99.1%
- root dry weight, % of untreated ([4]; 2x (160 g ai/ha)): 90.0%
- biomass accumulation, % of untreated ([4]; 3x (240 g ai/ha)): 95.8%
- plant height, % of untreated ([4]; 3x (240 g ai/ha)): 98.1%
- root dry weight, % of untreated ([4]; 3x (240 g ai/ha)): 98.0%
- biomass accumulation, % of untreated ([4]; 4x (320 g ai/ha)): 90.8%
- plant height, % of untreated ([4]; 4x (320 g ai/ha)): 91.0%
- root dry weight, % of untreated ([4]; 4x (320 g ai/ha)): 80.0%
- biomass accumulation, % of untreated ([4]; 5x (400 g ai/ha)): 81.9%
- plant height, % of untreated ([4]; 5x (400 g ai/ha)): 94.3%
- root dry weight, % of untreated ([4]; 5x (400 g ai/ha)): 80.0%
- biomass accumulation, % of untreated ([4]; 6x (480 g ai/ha)): 78.0%
- plant height, % of untreated ([4]; 6x (480 g ai/ha)): 85.8%
- root dry weight, % of untreated ([4]; 6x (480 g ai/ha)): 65.8%
- biomass accumulation, % of untreated ([5]; 0.5x (40 g ai/ha)): 100.0%
- plant height, % of untreated ([5]; 0.5x (40 g ai/ha)): 97.0%
- root dry weight, % of untreated ([5]; 0.5x (40 g ai/ha)): 100%
- biomass accumulation, % of untreated ([5]; 1x (80 g ai/ha)): 100.0%
- plant height, % of untreated ([5]; 1x (80 g ai/ha)): 95.7%
- root dry weight, % of untreated ([5]; 1x (80 g ai/ha)): 100.0%
- biomass accumulation, % of untreated ([5]; 2x (160 g ai/ha)): 97.6%
- plant height, % of untreated ([5]; 2x (160 g ai/ha)): 95.2%
- root dry weight, % of untreated ([5]; 2x (160 g ai/ha)): 92.5%
- biomass accumulation, % of untreated ([5]; 3x (240 g ai/ha)): 95.4%
- plant height, % of untreated ([5]; 3x (240 g ai/ha)): 95.7%
- root dry weight, % of untreated ([5]; 3x (240 g ai/ha)): 85.2%
- biomass accumulation, % of untreated ([5]; 4x (320 g ai/ha)): 90.5%
- plant height, % of untreated ([5]; 4x (320 g ai/ha)): 94.1%
- root dry weight, % of untreated ([5]; 4x (320 g ai/ha)): 87.0%
- biomass accumulation, % of untreated ([5]; 5x (400 g ai/ha)): 85.3%
- plant height, % of untreated ([5]; 5x (400 g ai/ha)): 94.3%
- root dry weight, % of untreated ([5]; 5x (400 g ai/ha)): 88.1%
- biomass accumulation, % of untreated ([5]; 6x (480 g ai/ha)): 83.0%
- plant height, % of untreated ([5]; 6x (480 g ai/ha)): 91.4%
- root dry weight, % of untreated ([5]; 6x (480 g ai/ha)): 69.5%
